Data published in PubChem BioAssay AID652214 (Broad Institute, 2013).
Calls of active or inactive are those of the source.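 How the source made its calls: active means AC50 of 30 µM or below; inactive means AC50 above 30 µM.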

Molecular target: Thioredoxin (Homo sapiens) (UniProt P10599)
Experiment: TRX disulfide reduction blockade – biochemical, insulin turbidity, dry powder samples, counter-screen for PDI inhibitor project, dose response (AID 652214)
Conditions: purified thioredoxin, insulin reduction turbidity OD650

Sequence of Thioredoxin (Homo sapiens) (P10599 whole entry, looked up): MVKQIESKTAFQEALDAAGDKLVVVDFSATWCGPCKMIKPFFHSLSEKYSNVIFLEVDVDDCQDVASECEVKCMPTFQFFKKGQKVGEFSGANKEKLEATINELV

| AC50 | SMILES |
| --- | --- |
| 3 µM | C/C1=C\[C@@H](O)C(C)(C)CCCC2(C)OC2C[C@@H]1OC(=O)c1ccc(O)cc1 (some centres not stated) |
| > 30 µM (inactive) | C/C1=C\C[C@H](OC(=O)c2ccc(O)cc2)/C(C)=C/[C@@H](O)C(C)(C)CCC1 |
| > 30 µM (inactive) | O=C(Nc1ccccc1)C1(CCOc2ccccc2)CCN(Cc2ccc(O)c(Cl)c2)CC1 |
| > 30 µM (inactive) | CC(C)OC(=O)C1(CCOc2ccccc2)CCN(Cc2ccc(O)c(Cl)c2)CC1 |
| > 30 µM (inactive) | CCOC(=O)c1c(CN2CCN(CCO)CC2)n(-c2ccccc2)c2cc(Br)c(O)cc12 |
| > 30 µM (inactive) | CCOC(=O)C1(CCOc2ccccc2)CCN(C(=O)c2ccc(O)c(Cl)c2)CC1 |
| > 30 µM (inactive) | CCN(C)C(=O)C1(CCOc2ccccc2)CCN(Cc2ccc(O)c(Cl)c2)CC1 |
| > 30 µM (inactive) | O=C(NC1CCCC1)C1(CCOc2ccccc2)CCN(Cc2ccc(O)c(Cl)c2)CC1 |
| > 30 µM (inactive) | CCOC(=O)C1(CCOc2ccccc2)CCN(Cc2ccc(O)c(Cl)c2)CC1 |
| > 30 µM (inactive) | CCOC(=O)C1(CCOc2ccccc2)CCN(Cc2ccc(OC)c(Cl)c2)CC1 |
| > 30 µM (inactive) | CCOC(=O)C1(CCOc2ccccc2)CCN(Cc2ccc(O)cc2)CC1 |
| > 30 µM (inactive) | CC(C)(C)OC(=O)C1(CCOc2ccccc2)CCN(Cc2ccc(O)c(Cl)c2)CC1 |
